Test results taken from patent US11364275B2, “Linear lipopeptide paenipeptins and methods of using the same” (priority 2017, dated 2022).
Values after ≈ are worked out from the molar mass of the structure shown. Like-named read-outs stand apart in the source and are kept apart here. Where a SMILES comes first, the peptide text is derived from it. [ ]: non-standard residue; d: D form. The star is where a group is joined. Cha = N[C@@H](CC1CCCCC1)C(=O)O; Decanoyl = CCCCCCCCCC(=O)*; Heptanoyl = CCCCCCC(=O)*; Octanoyl = CCCCCCCC(=O)*; Dab = NCC[C@H](N)C(=O)O

Experiments:
[1] = tested on: Pseudomonas aeruginosa ATCC 27853; assay type: cell-based; settings: ATCC 27853
Experimental: (§4) The minimum inhibitory concentration (MIC) of paenipeptin analogues was determined using the broth microdilution method (Wirker, M. A. Methods for Dilution Antimicrobial Susceptibility Tests for Bacteria that Grow Aerobically: Approved Standard M07-A8; Clinical and Laboratory Standards Institute, Wayne, Pa., 2009). Seven reference strains (Acinetobacter baumannii ATCC 19606, Escherichia coli ATCC 25922, Klebsiella pneumoniae ATCC 13883, Pseudomonas aeruginosa ATCC 27853, Enterococcus faecium ATCC 19434, Staphylococcus aureus ATCC 29213 and methicillin-resistant S. aureus ATCC 43300) were subjected to MIC testing.
(§5) Paenipeptin analogues were two-fold diluted in tryptic soy broth (TSB; Becton Dickinson) and mixed with an equal volume of bacterial suspensions in TSB containing approximately 1.5×10^5 colony-forming units (CFU)/mL in a clear UV-sterilized 96-well microtiter plate (NBS, Corning Inc., Corning, N.Y.). […] The microtiter plate was incubated at 37° C. for 18-20 h.

rabbit red blood cells = experiment: Hemolytic activity; assay type: cell-based; settings: for Hemolysis: relative to Triton X-100
Experimental: Hemolytic activity was evaluated using defibrinated rabbit blood in a 96-well plate as described previously. A nonionic surfactant Triton X-100, which is capable of lysing red blood cells (RBCs), was used at 0.1% as a positive control. Briefly, rabbit blood (Hardy Diagnostics, Santa Maria, Calif.) was diluted with phosphate buffered saline (PBS; pH 7.2) at a 1:19 ratio (v/v) and free hemoglobin was removed by washing RBCs and centrifugation four times at 1,000×g at 4° C. for 5 min. Aliquots (50 μL) of washed RBCs were incubated with 150 μL two-fold dilutions of paenipeptin analogues at final concentrations of 16-128 μg/mL at 37° C. for 30 min in a microtiter plate (NBS, Corning Inc.). After incubation, treated RBCs were gently mixed by repeated pipetting. Aliquots (20 μL) of the cell suspension were mixed with 200 μL PBS in a new 96-well plate and centrifuged at 2,204×g for 10 min. The supernatant was transferred to a new 96-well plate for absorbance measurement at 415 nm using a Cell Imaging Multimode Reader (Cytation 3, BioTek; Winooski, Vt.). The percent hemolysis observed after exposure to each paenipeptin analogue was calculated relative to Triton X-100.

S. aureus ATCC 29213 [2] = assay type: cell-based, Staphylococcus aureus; settings: ATCC 29213
Experimental: (§1) The impact of human serum on the antibacterial activity of selected paenipeptin analogues was determined using a procedure similar to that used for MIC determination as described above except that the microbiological medium was replaced by human serum (MP Biomedicals, Solon, Ohio). Paenipeptin analogues were two-fold diluted in 100% human serum and mixed with an equal volume of 90% serum containing approximately 1.5×10^5 CFU/mL of E. coli ATCC 25922 or S. aureus ATCC 29213. The final paenipeptin concentrations ranged from 0.5-64 μg/mL in 95% serum. The MIC in the presence of serum was then tested as described above.

[3] = tested on: Acinetobacter baumannii ATCC 19606; assay type: cell-based; settings: ATCC 19606
Experimental: as §4, §5

[4] = tested on: Escherichia coli ATCC 25922; assay type: cell-based; settings: ATCC 25922
Experimental: as §4, §5

E. coli ATCC 25922 [5] = assay type: cell-based, Escherichia coli
Description: (§2) The surviving cells from each antimicrobial concentration with no visible growth were enumerated by plating on tryptic soy agar (TSA). MBC was defined as the lowest concentration of the antimicrobial agent that led to at least a 99.9% reduction in the number of viable bacterial cells relative to the initial inoculum. There were three independent experiments with one replicate in each experiment.

S. aureus ATCC 43300 = assay type: cell-based, Staphylococcus aureus
Description: as §2

S. aureus ATCC 29213 [6] = assay type: cell-based, Staphylococcus aureus
Description: as §2

[7] = tested on: methicillin-resistant S. aureus ATCC 43300; assay type: cell-based, Staphylococcus aureus; settings: ATCC 43300
Experimental: as §4, §5

P. aeruginosa ATCC 27853 = assay type: cell-based, Pseudomonas aeruginosa
Description: as §2

K. pneumoniae ATCC 13883 = assay type: cell-based, Klebsiella pneumoniae
Description: as §2

[8] = tested on: Klebsiella pneumoniae ATCC 13883; assay type: cell-based; settings: ATCC 13883
[9] = tested on: Staphylococcus aureus ATCC 29213; assay type: cell-based; settings: ATCC 29213
Experimental: as §4, §5

E. faecium ATCC 19434 = assay type: cell-based, Enterococcus faecium
Description: as §2

A. baumannii ATCC 19606 = assay type: cell-based, Acinetobacter baumannii
Description: as §2

[10] = tested on: methicillin-resistant S. aureus strain LAC biofilm; experiment: Established catheter-associated biofilm in vitro; assay type: cell-based, Staphylococcus aureus; settings: data not shown
Experimental: Each well was inoculated with the methicillin-resistant S. aureus strain LAC or P. aeruginosa ATCC 27853 to an OD600nm of 0.05. […] After 72 h of exposure, catheters were rinsed with PBS, followed by sonication (for S. aureus) or vigorous vortexing (for P. aeruginosa) to quantitatively recover adherent bacteria. Viable S. aureus or P. aeruginosa cells were enumerated by plating serial dilutions on TSA.

[11] = tested on: Escherichia coli ATCC 25922; assay type: in vitro ADME
Experimental: To determine the stability of peptides in human serum, paenipeptin analogues were added into 100% human serum to a final concentration of 64 μg/ml. The mixtures were incubated at 37° C. and samples were withdrawn at 0, 6, 12 and 24 h. […] The residual antibacterial activity after incubation in human serum was compared to the non-treated control.

[12] = tested on: Enterococcus faecium ATCC 19434; assay type: cell-based; settings: ATCC 19434
Experimental: as §4, §5

E. coli ATCC 25922 [13] = assay type: cell-based, Escherichia coli; settings: ATCC 25922
Experimental: as §1

[14] = tested on: Klebsiella pneumoniae ATCC 13883; experiment: MIC of antibiotics with or without paenipeptin analogues (potentiation); assay type: cell-based; settings: K. pneumoniae ATCC 13883
Description: (§3) Gram-negative bacteria, including Acinetobacter and Klebsiella, are intrinsically resistant to the hydrophobic antibiotic rifampicin.

[15] = tested on: Acinetobacter baumannii ATCC 19606; experiment: as above; assay type: cell-based; settings: A. baumannii ATCC 19606
Description: as §3

S. aureus ATCC 29213 [16] = settings: cited from earlier work

Row | Molecule | MIC [1] [µg/mL] | Hemolysis (rabbit red blood cells; 32 μg/mL) [%] | Hemolysis (rabbit red blood cells; 64 μg/mL) [%] | Hemolysis (rabbit red blood cells; 128 μg/mL) [%] | Minimum inhibitory concentration (S. aureus ATCC 29213 [2]) [µg/mL] | MIC [3] [µg/mL] | MIC [4] [µg/mL] | Minimum inhibitory concentration [4] [µg/mL] | MBC (S. aureus ATCC 43300) [µg/mL] | MBC (S. aureus ATCC 29213 [6]) [µg/mL] | MIC [7] [µg/mL] | MBC (P. aeruginosa ATCC 27853) [µg/mL] | Hemolysis (rabbit red blood cells; 16 μg/mL) [%] | MBC (K. pneumoniae ATCC 13883) [µg/mL] | MIC [8] [µg/mL] | MIC [9] [µg/mL] | Minimum inhibitory concentration [9] [µg/mL] | MBC (E. faecium ATCC 19434) [µg/mL] | MBC (A. baumannii ATCC 19606) [µg/mL] | hemolytic activity (in words) (rabbit red blood cells; 128 μg/mL) | also measured
1 | CCCCCCC(=O)N[C@@H](CCN)C(=O)N[C@@H](Cc1ccccc1)C(=O)N[C@@H](CCN)C(=O)N[C@H](Cc1ccccc1)C(=O)N[C@@H](CC(C)C)C(=O)N[C@@H](CCN)C(=O)N[C@H](CC(C)C)C(=O)N[C@@H](Cc1ccccc1)C(=O)N[C@@H](CO)C(N)=O [Analogue 7] (Heptanoyl-[Dab]F[Dab][dF]L[Dab][dL]FS-NH2) | 1 to 2 | 5.10 ± 1.26 | 18.8 ± 2.44 | 64.2 ± 3.28 | 32 to 64 | 2 to 4 | 0.5 to 2 | 0.5 to 2 | 8 to 16 | 8 to 32 | – | – | – | – | – | – | – | – | – | – | MBC (E. coli ATCC 25922 [5]): 8 to 16 µg/mL
2 | CCCCCCCC(=O)N[C@@H](CCN)C(=O)N[C@H](C(=O)N[C@@H](CCN)C(=O)N[C@H](Cc1ccccc1)C(=O)N[C@@H](CC(C)C)C(=O)N[C@@H](CCN)C(=O)N[C@@H](C(=O)N[C@@H](CC(C)C)C(=O)N[C@@H](CO)C(N)=O)C(C)C)[C@@H](C)CC [Analogue 8, C8-Pat] (Octanoyl-[Dab]I[Dab][dF]L[Dab][dV]LS-NH2) | – | 1.91 ± 0.25 | 6.18 ± 2.48 | 25.3 ± 4.15 | 16 to 32 | – | 2 to 4 | 2 to 4 | 8 to 32 | – | 8 to 16 | 8 to 16 | 0.93 ± 0.45 | 8 to 16 | 8 to 16 | 8 to 16 | 8 to 16 | 16 to 32 | 16 to 32 | – | –
3 | CCCCCCCCCC(=O)N[C@@H](CCN)C(=O)N[C@H](C(=O)N[C@@H](CCN)C(=O)N[C@H](Cc1ccccc1)C(=O)N[C@@H](CC(C)C)C(=O)N[C@@H](CCN)C(=O)N[C@@H](C(=O)N[C@@H](CC(C)C)C(=O)N[C@@H](CO)C(N)=O)C(C)C)[C@@H](C)CC [Analogue 12] (Decanoyl-[Dab]I[Dab][dF]L[Dab][dV]LS-NH2) | 1 to 2 | 37.2 ± 8.62 | 73.4 ± 7.59 | 93.9 ± 7.57 | – | 0.5 to 2 | 2 to 8 | 2 to 8 | 2 to 4 | 4 to 8 | 2 to 4 | 2 to 4 | 14.3 ± 4.25 | 4 to 8 | 2 to 4 | 2 to 4 | 2 to 4 | 2 to 4 | 0.5 to 2 | strong hemolytic activity | activity against established catheter-associated biofilm (in words) [10]: no activity
4 | CC[C@H](C)[C@H](NC(=O)[C@H](CCN)NC(=O)[C@@H](N)CC1CCCCC1)C(=O)N[C@@H](CCN)C(=O)N[C@H](Cc1ccccc1)C(=O)N[C@@H](CC(C)C)C(=O)N[C@@H](CCN)C(=O)N[C@@H](C(=O)N[C@@H](CC(C)C)C(=O)N[C@@H](CO)C(N)=O)C(C)C [Analogue 16] (H-[Cha][Dab]I[Dab][dF]L[Dab][dV]LS-NH2) | 2 to 8 | 0.33 ± 0.83 | 0.65 ± 0.62 | 1.63 ± 0.40 | >64 | ≥32 | 4 to 8 | 4 to 8 | – | – | – | 16 to 32 | 0.55 ± 0.75 | – | – | >32 | >32 | – | – | non-hemolytic | MIC after incubation in human serum at 37° C. [11]: > 32 µg/mL; MIC after incubation in human serum at 37° C. ([11]; ATCC 25922, 0 h): 1 to 2 µg/mL; MIC after incubation in human serum at 37° C. ([11]; ATCC 25922, 12 h): >32 µg/mL; MIC after incubation in human serum at 37° C. ([11]; ATCC 25922, 24 h): >32 µg/mL; MIC [12]: >32 µg/mL; Minimum inhibitory concentration (E. coli ATCC 25922 [13]): 2 µg/mL (≈ 1.75 µM); MIC of ampicillin in the presence of […] μg/ml paenipeptin analogue [14]: 32 μg/ml; MIC of erythromycin in the presence of […] μg/ml paenipeptin analogue [14]: 0.0625 μg/ml; MIC of rifampicin at 2 μg/mL of paenipeptin analogue [14]: 0.0039 μg/ml; MIC of rifampicin at 4 μg/mL of paenipeptin analogue [14]: <0.00098-0.00195 μg/ml; MIC of vancomycin in the presence of […] μg/ml paenipeptin analogue [14]: >32 μg/ml; Sensitization factor (clarithromycin) ([14]; 4 μg/mL paenipeptin): 2,048-4,096; MIC of ampicillin in the presence of […] μg/ml paenipeptin analogue [15]: 8-16 μg/ml; MIC of clarithromycin in the presence of […] μg/ml paenipeptin analogue [15]: 0.0156 μg/ml; MIC of erythromycin in the presence of […] μg/ml paenipeptin analogue [15]: 0.5 μg/ml; MIC of rifampicin at 2 μg/mL of paenipeptin analogue [15]: 0.0039-0.0078 μg/ml; MIC of vancomycin in the presence of […] μg/ml paenipeptin analogue [15]: 0.5-1 μg/ml; Sensitization factor (clarithromycin) ([15]; 4 μg/mL paenipeptin): 2,048; Sensitization factor (erythromycin) ([15]; 4 μg/mL paenipeptin): 64; Sensitization factor (rifampicin) ([15]; MIC without / with 4 μg/mL paenipeptin): 4,096
5 | MX-2401 | – | – | – | – | – | – | – | – | – | – | – | – | – | – | – | – | – | – | – | – | MIC (S. aureus ATCC 29213 [16]; 95% mouse serum): 128 µg/mL; MIC (S. aureus ATCC 29213 [16]; microbiological medium): 2 µg/mL
